Source: ChEMBL document CHEMBL6087385, “Synthesis and biological evaluation of Ribo 7-N/O/S pyrimidine 9-deaza C-nucleoside analogs as new antiviral agents for inhibiting HCV RNA-dependent RNA polymerases” (Eur J Med Chem, 2024)

Columns and labels:
[1] = Drug metabolism in human Huh-luc/neo cells assessed as triphosphate metabolite formation at 10 uM measured after 24 hrs by HPLC-MS analysis; format: ADME, cell-based
[2] = Drug metabolism in human Hepatocyte cells assessed as triphosphate metabolite formation at 10 uM measured upto 24 hrs by HPLC-MS analysis; format: ADME, cell-based; conditions: hepatocytes
[3] = Drug level in Sprague-Dawley rat liver assessed as triphosphate metabolite concentration at 2 mg/kg, iv measured after 1 hr in presence of ATP by LC-MS/MS analysis; format: ADME, organism-based; conditions: in vivo, read-out: Ct
Hepatitis C virus [4] = assay: Anti-viral activity against HCV genotype 1b infected in human Huh-luc cells; format: functional, organism-based, Hepacivirus hominis
Hepatitis C virus [5] = assay: Anti-viral activity against HCV genotype 2a infected in 2aLucNeo-25 cells; format: functional, organism-based, Hepacivirus hominis
[6] = Tmax in Sprague-Dawley rat at 1 mg/kg, iv by reverse phase chromatography; format: ADME, organism-based; conditions: in vivo
[7] = Tmax in Sprague-Dawley rat at 10 mg/kg, po by reverse phase chromatography; format: ADME, organism-based; conditions: in vivo
[8] = Tmax in Cynomolgus monkey at 1 mg/kg, iv by reverse phase chromatography; format: ADME, organism-based, Macaca fascicularis; conditions: in vivo
[9] = Cmax in Cynomolgus monkey at 1 mg/kg, iv by reverse phase chromatography; format: ADME, organism-based, Macaca fascicularis; conditions: in vivo, time 7 day
[10] = Cmax in Cynomolgus monkey at 10 mg/kg, po administered for 7 days by reverse phase chromatography; format: ADME, organism-based, Macaca fascicularis; conditions: in vivo, time 7 day
[11] = Half life in Sprague-Dawley rat at 5 mg/kg, po by reverse phase chromatography; format: ADME, organism-based; conditions: in vivo
[12] = Volume of distribution in female mouse at 1 mg/kg, iv by reverse phase chromatography; format: ADME, organism-based; conditions: in vivo
[13] = Volume of distribution in Sprague-Dawley rat at 1 mg/kg, iv by reverse phase chromatography; format: ADME, organism-based; conditions: in vivo
[14] = Clearance in female mouse at 1 mg/kg, iv by reverse phase chromatography; format: ADME, organism-based; conditions: in vivo
[15] = Clearance in Sprague-Dawley rat at 1 mg/kg, iv by reverse phase chromatography; format: ADME, organism-based; conditions: in vivo
[16] = AUC in female mouse at 5 mg/kg, po by reverse phase chromatography; format: ADME, organism-based; conditions: in vivo
[17] = AUC in Sprague-Dawley rat at 1 mg/kg, iv by reverse phase chromatography; format: ADME, organism-based; conditions: in vivo
[18] = AUC in Cynomolgus monkey at 1 mg/kg, iv by reverse phase chromatography; format: ADME, organism-based, Macaca fascicularis; conditions: in vivo
[19] = AUC in Cynomolgus monkey at 10 mg/kg, po administered for 7 days by reverse phase chromatography; format: ADME, organism-based, Macaca fascicularis; conditions: in vivo, time 7 day
[20] = AUC (0 to infinity) in female mouse at 5 mg/kg, po by reverse phase chromatography; format: ADME, organism-based; conditions: in vivo
[21] = AUC (0 to infinity) in Sprague-Dawley rat at 1 mg/kg, iv by reverse phase chromatography; format: ADME, organism-based; conditions: in vivo
[22] = AUC (0 to infinity) in Sprague-Dawley rat at 5 mg/kg, po by reverse phase chromatography; format: ADME, organism-based; conditions: in vivo
[23] = AUC (0 to infinity) in Cynomolgus monkey at 1 mg/kg, iv by reverse phase chromatography; format: ADME, organism-based, Macaca fascicularis; conditions: in vivo
[24] = Oral bioavailability in Cynomolgus monkey at 10 mg/kg administered for 7 days by reverse phase chromatography; format: ADME, organism-based, Macaca fascicularis; conditions: in vivo, time 7 day
[25] = Metabolic stability in Non human primate liver microsome assessed as half life in presence of NADPH; format: ADME; conditions: liver microsomes
[26] = Metabolic stability in cryopreserved rat hepatocyte assessed as half life in presence of NADPH; format: ADME, cell-based; conditions: cryopreserved hepatocytes
[27] = Metabolic stability in cryopreserved Non human primate hepatocyte assessed as half life in presence of NADPH; format: ADME, cell-based; conditions: cryopreserved hepatocytes
[28] = Metabolic stability in cryopreserved human hepatocyte assessed as half life in presence of NADPH; format: ADME, cell-based; conditions: cryopreserved hepatocytes
[29] = Toxicity in rat assessed as effect on respiratory endpoint at 1 to 9 mg/kg, po; format: organism-based; conditions: in vivo, dose 1-9 mg/kg
[30] = Toxicity in dog assessed as effect on […] function at 1 to 5 mg/kg, po administered for 3 hr post dose by electrocardiogram analysis; format: organism-based, Canis lupus familiaris; conditions: in vivo, dose 1-5 mg/kg
[31] = Toxicity in dog assessed as increase in QTc interval at 1 to 5 mg/kg, po measured after 3 hrs; format: organism-based, Canis lupus familiaris; conditions: in vivo, dose 1-5 mg/kg
[32] = Genotoxicity in human Lymphocyte assessed as induction of chromosomal aberration upto 3000 ug/ml; format: toxicity, cell-based; conditions: dose < 3000 µg/ml
[33] = Genotoxicity in CD-1(ICR)BR mouse assessed as increase in polychromatic erythrocytes at 500 to 2000 mg/kg, po measured after 48 hrs by micronucleus assay; format: toxicity, organism-based; conditions: in vivo, dose 500-2000 mg/kg
[34] = Toxicity in Sprague-Dawley rat assessed as weight loss at 90 mg/kg, po administered as single dose and measured after 14 days; format: organism-based; conditions: in vivo, 336 h, time 14 day
[35] = Toxicity in Sprague-Dawley rat assessed as weight loss at 150 mg/kg, po administered as single dose and measured after 14 days; format: organism-based; conditions: in vivo, 336 h, time 14 day
[36] = Toxicity in Sprague-Dawley rat assessed as weight loss at 250 mg/kg, po administered as single dose and measured after 14 days; format: organism-based; conditions: in vivo, 336 h, time 14 day
[37] = Toxicity in Sprague-Dawley rat assessed as piloerection at 150 mg/kg, po administered as single dose and measured after 14 days; format: organism-based; conditions: in vivo, 336 h, time 14 day
[38] = Toxicity in Sprague-Dawley rat assessed as lethargy at 90 mg/kg, po administered as single dose and measured after 14 days; format: organism-based; conditions: in vivo, 336 h, time 14 day
[39] = Toxicity in Sprague-Dawley rat assessed as lethargy at 100 mg/kg, po administered as single dose and measured after 14 days; format: organism-based; conditions: in vivo, 336 h, time 14 day
[40] = Toxicity in Sprague-Dawley rat assessed as lethargy at 250 mg/kg, po administered as single dose and measured after 14 days; format: organism-based; conditions: in vivo, 336 h, time 14 day
[41] = Toxicity in Sprague-Dawley rat assessed as anogenital staining at 100 mg/kg, po administered as single dose and measured after 14 days; format: organism-based; conditions: in vivo, 336 h, time 14 day
[42] = Toxicity in Sprague-Dawley rat assessed as diarrhea at 250 mg/kg, po administered as single dose and measured after 14 days; format: organism-based; conditions: in vivo, 336 h, time 14 day
[43] = Toxicity in Sprague-Dawley rat assessed as macroscopic examination at necroscopy at 250 mg/kg, po administered as single dose and measured after 14 days; format: organism-based; conditions: in vivo, 336 h, time 14 day
[44] = Toxicity in cynomolgus monkey assessed as weight loss at 100 to 500 mg/kg, po administered as single dose; format: organism-based, Macaca fascicularis; conditions: in vivo, dose 100-500 mg/kg
[45] = Toxicity in Cynomolgus monkey assessed as weight loss at 100 mg/kg, po administered twice a day; format: organism-based, Macaca fascicularis; conditions: in vivo
[46] = Toxicity in Cynomolgus monkey assessed as change in ECG at 100 to 500 mg/kg, po administered as single dose; format: organism-based, Macaca fascicularis; conditions: in vivo, dose 100-500 mg/kg
[47] = Toxicity in Cynomolgus monkey assessed as change in ECG at 100 mg/kg, po administered twice a day; format: organism-based, Macaca fascicularis; conditions: in vivo
[48] = Toxicity in Cynomolgus monkey assessed as emesis at 250 to 500 mg/kg, po administered as single dose; format: organism-based, Macaca fascicularis; conditions: in vivo, dose 250-500 mg/kg
[49] = Toxicity in Cynomolgus monkey assessed as animal death at 100 mg/kg, po administered twice a day; format: organism-based, Macaca fascicularis; conditions: in vivo

## C[C@@]1(O)[C@H](O)[C@@H](CO)O[C@H]1c1coc2c(N)ncnc12
[1]
  Drug metabolism: metabolite_detected
[2]
  Drug metabolism: metabolite_detected
[3]
  concentration: 22.6 µM
Hepatitis C virus [4]
  EC50: 4.7 µM
Hepatitis C virus [5]
  EC50: > 50 µM
[6]
  Tmax: 4.8 min
[7]
  Tmax: 30 min
[8]
  Tmax: 1.8 min
[9]
  Cmax: 3200 ng/mL
[10]
  Cmax: 2510 ng/mL
[11]
  half-life: 551 min
[12]
  Vd: 22.4 L/kg
[13]
  Vd: 33.2 L/kg
[14]
  clearance: 11.6 mL/min/kg
[15]
  clearance: 17.6 mL/min/kg
[16]
  AUC: 3250 ng·h/mL
[17]
  AUC: 699 ng·h/mL
[18]
  AUC: 1930 ng·h/mL
[19]
  AUC at 168 h: 7260 ng·h/mL
[20]
  AUC(0-inf): 4220 ng·h/mL
[21]
  AUC(0-inf): 947 ng·h/mL
[22]
  AUC(0-inf): 2150 ng·h/mL
[23]
  AUC(0-inf): 2340 ng·h/mL
[24]
  bioavailability: 37.6%
[25]
  half-life: > 100 min
[26]
  half-life: > 60 min
[27]
  half-life: > 60 min
[28]
  half-life: > 60 min
[29]
  Activity: Non-toxic
[30]
  Activity: Non-toxic
[31]
  Activity: Non-toxic
[32]
  Activity: Non-toxic
[33]
  Activity: Toxic
[34]
  Activity: Toxic
[35]
  Activity: Toxic
[36]
  Activity: Non-toxic
[37]
  Activity: Toxic
[38]
  Activity: Non-toxic
[39]
  Activity: Non-toxic
[40]
  Activity: Non-toxic
[41]
  Activity: Non-toxic
[42]
  Activity: Non-toxic
[43]
  Activity: Toxic
[44]
  Activity: Non-toxic
[45]
  Activity: Non-toxic
[46]
  Activity: Non-toxic
[47]
  Activity: Non-toxic
[48]
  Activity: Toxic
[49]
  Activity: Non-toxic
